Laboratory results taken from patent publication EP3294317B1, “ENHANCED ANTIBIOTIC COMPOSITION” (Universitat Autònoma de Barcelona, priority 2015, dated 2016).

Legend:
[1] = test system: Escherichia coli ATCC 25922; assay: Colistin broth microdilution MIC with potentiator compounds (Example 1); type: cell-based; conditions: E. coli ATCC 25922; MIC in the presence of 1.0% DMSO / MIC in the presence of 0.1 mM potentiator compound and 1.0% DMSO; positive = increased, negative = decreased susceptibility, 1 = no effect
[2] = test system: Escherichia coli ATCC 9637; assay: as above; type: cell-based; conditions: E. coli ATCC 9637; MIC in the presence of 1.0% DMSO / MIC in the presence of 0.1 mM potentiator compound and 1.0% DMSO; positive = increased, negative = decreased susceptibility, 1 = no effect
[3] = test system: Pseudomonas aeruginosa ATCC 27853; assay: as above; type: cell-based; conditions: P. aeruginosa ATCC 27853; MIC in the presence of 1.0% DMSO / MIC in the presence of 0.1 mM potentiator compound and 1.0% DMSO; positive = increased, negative = decreased susceptibility, 1 = no effect
[4] = test system: Stenotrophomonas maltophilia ATCC 13637; assay: as above; type: cell-based; conditions: S. maltophilia ATCC 13637; MIC in the presence of 1.0% DMSO / MIC in the presence of 0.1 mM potentiator compound and 1.0% DMSO; positive = increased, negative = decreased susceptibility, 1 = no effect
[5] = test system: Enterobacter aerogenes ATCC 13048; assay: as above; type: cell-based; conditions: E. aerogenes ATCC 13048; MIC in the presence of 1.0% DMSO / MIC in the presence of 0.1 mM potentiator compound and 1.0% DMSO; positive = increased, negative = decreased susceptibility, 1 = no effect
[6] = test system: S. maltophilia ATCC 13637; assay: Broth microdilution MIC of other antibiotics with potentiator compounds (Example 2); type: cell-based, Stenotrophomonas maltophilia
Experimental: (§1) Following the procedure of Example 1, ciprofloxacin, amikacin, levofloxacin, tigecycline, imipenem and the combination trimethoprim/sulfamethoxasole (1:19) were tested. All were purchased from Sigma-Aldrich Co.
(§2) Minimal inhibitory concentration (MIC) of the antibiotic or the test combinations were determined by the broth microdilution method.
(§3) Antibiotic stock solutions were prepared according to CLSI recommendations and sterilizing by passage through 0.20 µm filters.
(§4) Antimicrobial susceptibility testing of these isolates was performed using the broth microdilution (BMD) method, according to CLSI guidelines.
(§5) The fold increase in bacterial susceptibility to antibiotics when combined with the potentiator compound (expressed as MIC in the presence of 1.0% DMSO / MIC in the presence of 0.1 mM of each potentiator compound and 1.0% DMSO) are shown in Table 4: […]

[7] = test system: P. aeruginosa ATCC 27853; assay: as above; type: cell-based, Pseudomonas aeruginosa; conditions: any of ciprofloxacin, amikacin, levofloxacin, tigecycline, imipenem, TMP/SMX (1:19), 0.1 mM potentiator, 1.0% DMSO, 'none' = no antibiotic potentiated
Experimental: as §1, §2, §3, §4, §5

[8] = test system: S. maltophilia 197; assay: Colistin broth microdilution MIC with potentiator compounds, resistant clinical isolates (Example 3); type: cell-based, Stenotrophomonas maltophilia
Experimental: (§6) The potentiator effect of the compound of the invention and other compounds disclosed herein was tested using colistin sulfate as antibiotic and in combination with the enhancer compounds in front of resistant clinical isolates.
(§7) Tests were performed to determine the potentiator effect of the compound of the invention and other compounds disclosed herein with multidrug-resistant S. maltophilia and A. baumannii clinical strains as shown in Table 5: TABLE 5
(§8) For this experiment the potentiator compound was added to a colistin broth microdilution assay at a final concentration of 0.1mM. MICs were determined as described in the Example 1.
as §5, with “Colistin minimal inhibitory concentration (MIC), expressed in µg/mL, and the” for “The”, “colistin” for “antibiotics”, “6:” for “4:”

[9] = test system: S. maltophilia 257; assay: as above; type: cell-based, Stenotrophomonas maltophilia; conditions: MIC in the presence of 1.0% DMSO / MIC in the presence of 0.1 mM compound and 1.0% DMSO, positive = increased susceptibility, 1 = no effect
Experimental: as §6, §7, §8
as §5, with “Colistin minimal inhibitory concentration (MIC), expressed in µg/mL, and the” for “The”, “colistin” for “antibiotics”, “6:” for “4:”

[10] = test system: S. maltophilia 53149; assay: as above; type: cell-based, Stenotrophomonas maltophilia; conditions: MIC in the presence of 1.0% DMSO / MIC in the presence of 0.1 mM compound and 1.0% DMSO, positive = increased susceptibility, 1 = no effect
Experimental: as §6, §7, §8
as §5, with “Colistin minimal inhibitory concentration (MIC), expressed in µg/mL, and the” for “The”, “colistin” for “antibiotics”, “6:” for “4:”

[11] = test system: S. maltophilia D457; assay: as above; type: cell-based, Stenotrophomonas maltophilia; conditions: MIC in the presence of 1.0% DMSO / MIC in the presence of 0.1 mM compound and 1.0% DMSO, positive = increased susceptibility, 1 = no effect
Experimental: as §6, §7, §8
as §5, with “Colistin minimal inhibitory concentration (MIC), expressed in µg/mL, and the” for “The”, “colistin” for “antibiotics”, “6:” for “4:”

[12] = test system: S. maltophilia M30; assay: as above; type: cell-based, Stenotrophomonas maltophilia
Experimental: as §6, §7, §8
as §5, with “Colistin minimal inhibitory concentration (MIC), expressed in µg/mL, and the” for “The”, “colistin” for “antibiotics”, “6:” for “4:”

[13] = test system: S. maltophilia 257; assay: Broth microdilution MIC of other antibiotics with potentiator compounds, clinical isolates (Example 4); type: cell-based, Stenotrophomonas maltophilia; conditions: MIC in 1.0% DMSO / MIC with 0.1 mM compound and 1.0% DMSO
Experimental: (§9) Following the procedure of Example 3, ciprofloxacin, amikacin, levofloxacin, imipenem and the combination trimethoprim/sulfamethoxasole (1:19) were tested. All were purchased from Sigma-Aldrich Co.
as §2, §3, §4
(§10) The fold increase in bacterial susceptibility to antibiotics when combined with the potentiator compound (expressed as MIC in the presence of 1.0% DMSO / MIC in the presence of 0.1 mM of each potentiator compound and 1.0% DMSO) are shown in Table 7: […]

[14] = test system: A. baumannii 6799; assay: as above; type: cell-based, Acinetobacter baumannii
Experimental: as §9, §2, §3, §4, §10

[15] = test system: A. baumannii 6963; assay: as above; type: cell-based, Acinetobacter baumannii; conditions: MIC in 1.0% DMSO / MIC with 0.1 mM compound and 1.0% DMSO
Experimental: as §9, §2, §3, §4, §10

[16] = Solubility of the stock solution in methanol; type: physicochemical; conditions: organic solvent or mixture; 100% Methanol; fairly soluble, required vigorous vortex
Experimental: Selected compound of formula I was first dissolved in 100% of Methanol (HPLC Gradient Grade CHROMASOLV. Sigma, 34885-1L-R) to 10 mM. The compound was fairly soluble in methanol up to 10 mM and required vigorous vortex.

[17] = MIC in 1.0% DMSO / MIC with 0.1 mM potentiator compound and 1.0% DMSO
[18] = MIC in the presence of 1.0% DMSO / MIC in the presence of 0.1 mM compound and 1.0% DMSO, positive = increased susceptibility, 1 = no effect
[19] = MIC in 1.0% DMSO / MIC with 0.1 mM compound and 1.0% DMSO

## CN(C)CCNC(=O)c1cccc(CNC(=O)Nc2ccc3c(c2)Cc2ccccc2-3)c1 [I, N-[2-(dimethylamino)ethyl]-3-[(9H-fluoren-2-ylcarbamoylamino)methyl]benzamide]
[1]
  Fold increase in bacterial susceptibility to colistin: +2 fold
[2]
  Fold increase in bacterial susceptibility to colistin: +2 fold
[3]
  Fold increase in bacterial susceptibility to colistin: +2 fold
[4]
  Fold increase in bacterial susceptibility to colistin: +64 fold
[5]
  Fold increase in bacterial susceptibility to colistin: +2 fold
[6]; [17]
  Fold increase in bacterial susceptibility to Amikacin: 4 fold
  Fold increase in bacterial susceptibility to Ciprofloxacin: 2 fold
  Fold increase in bacterial susceptibility to Levofloxacin: 2 fold
[6]; Trimethoprim:sulfamethoxazole 1:19, MIC in 1.0% DMSO / MIC with 0.1 mM potentiator compound and 1.0% DMSO
  Fold increase in bacterial susceptibility to TMP/SMX: 2 fold
[7]
  Fold increase in bacterial susceptibility to antibiotic indicated: none
[8]; 0.1 mM compound
  Colistin susceptibility category according to the CLSI criteria in the presence of the compound: become sensitive to colistin
[8]; [18]
  Fold increase in bacterial susceptibility to colistin: +32 fold
[9]
  Fold increase in bacterial susceptibility to colistin: +4 fold
[10]
  Fold increase in bacterial susceptibility to colistin: +4 fold
[11]
  Fold increase in bacterial susceptibility to colistin: +2 fold
[12]; 0.1 mM compound
  Colistin susceptibility category according to the CLSI criteria in the presence of the compound: become sensitive to colistin
[12]; [18]
  Fold increase in bacterial susceptibility to colistin: +8 fold
[13]
  Fold increase in bacterial susceptibility to Levofloxacin: Levofloxacin (2) fold
[14]; [19]
  Fold increase in bacterial susceptibility to Amikacin: 2 fold
  Fold increase in bacterial susceptibility to Ciprofloxacin: 8 fold
  Fold increase in bacterial susceptibility to Imipenem: 4 fold
  Fold increase in bacterial susceptibility to Levofloxacin: 2 fold
[14]; Trimethoprim:sulfamethoxazole 1:19, MIC in 1.0% DMSO / MIC with 0.1 mM compound and 1.0% DMSO
  Fold increase in bacterial susceptibility to TMP/SMX: 2 fold
[15]
  Fold increase in bacterial susceptibility to Ciprofloxacin: Ciprofloxacin (2) Levofloxacin (2) Imipenem (2) fold
  Fold increase in bacterial susceptibility to Imipenem: Ciprofloxacin (2) Levofloxacin (2) Imipenem (2) fold
  Fold increase in bacterial susceptibility to Levofloxacin: Ciprofloxacin (2) Levofloxacin (2) Imipenem (2) fold
[16]
  solubility: ≤ 10 mM
